Laboratory results reported in US20240240224A1, “FLUORESCENT D-TYPE AMINO ACID METABOLISM MARKER-BASED METHOD FOR DETECTING ANTIBACTERIAL DRUG SENSITIVITY TEST” (priority 2020, published 2024).
≈ marks a conversion by molar mass, not a printed value.

Tests used:
[1] = test system: E. coli Ec11; test: BMD susceptibility test; assay type: cell-based, Escherichia coli; conditions: unit assumed
[2] = test system: E. coli Ec11; test: FaAST (FDAA metabolic labeling); assay type: cell-based, Escherichia coli; conditions: unit assumed
Experimental: (§1) The specific experimental steps are as follows: • 1. Take the colony to be tested that has been cultured overnight on the plate and fully mix it in normal saline to make a uniform bacterial solution. Dilute it into CAMHB medium to make a bacterial solution with OD600=0.05. • 2. Add 45 μl antibiotic solutions to be tested of different concentrations to 96-well plates (see Table 3 for antibiotic concentration gradient settings). • 3. Add 50 μl of bacterial solution prepared in Step 1 to the 96-well plate and mix well. • 4.5 μl of 10 mM Cy5-DAA probe was added to each well (final concentration was 0.15 mM, and its structure was shown in FIG. 1). After mixing, the probe was incubated for 2 hours in the dark. • 5. After dilution with 200 μl PBS solution, the fluorescence intensity of each sample was detected by flow cytometry. The flow detection results are shown in the attached FIG. 4-5, showing the curve of antibiotic concentration gradient and fluorescence intensity, and the MIC (minimum inhibitory concentration) is obtained by referring to this curve.
(§2) Antibiotic resistant strains are shown in bold in the table below.

[3] = test system: Ec ATCC 25922; test: FaAST (FDAA metabolic labeling); assay type: cell-based, Escherichia coli; conditions: unit assumed
Experimental: as §1, §2

[4] = test system: Ec ATCC 25922; test: BMD susceptibility test; assay type: cell-based, Escherichia coli; conditions: unit assumed
[5] = test system: K. pneumoniae Kp6; test: BMD susceptibility test; assay type: cell-based, Klebsiella pneumoniae; conditions: unit assumed
[6] = test system: K. pneumoniae Kp6; test: FaAST (FDAA metabolic labeling); assay type: cell-based, Klebsiella pneumoniae; conditions: unit assumed
Experimental: as §1, with “cytometry.” for “cytometry. The flow detection results are shown in the attached FIG. 4-5, showing the curve of antibiotic concentration gradient and fluorescence intensity, and the MIC (minimum inhibitory concentration) is obtained by referring to this curve.”

[7] = test system: Ec ATCC 25922; conditions: cited from earlier work
[8] = test system: S. aureus ST398; test: FDAA metabolic labeling susceptibility test (Cy5-DAA probe, flow cytometry); assay type: cell-based; conditions: Staphylococcus aureus; S. aureus ST398; Cy5-DAA probe, 2 hours; read-out: MIC, FDAA
Experimental: (§3) Take the colony to be tested that has been cultured overnight on the plate and fully mix it in normal saline to make a uniform bacterial solution. Dilute it into Cation-Adjusted Mueller Hinton Broth (CAMHB) culture medium to make a bacterial solution with OD600=0.05. • 2. Add 45 μl antibiotic solutions of different concentrations to 96-well plates (see Table 1 for antibiotic concentration gradient settings). • 3. Add 50 μl of the bacterial solution prepared in step 1 to the 96-well plate and mix well. • 4. Add 5 μl of 10 mM Cy5-DAA probe (final concentration 0.15 mM, see FIG. 1 for its structure) into each well, mix well, and cultivate in dark for 2 hours. • 5. Add 200 μl After PBS solution is diluted, the fluorescence intensity of each sample is detected by flow cytometry. The flow detection results are shown in FIG. 4-5, showing the curve of the change of antibiotic concentration gradient and fluorescence intensity. The MIC (minimum inhibitory concentration) can be obtained by referring to this curve.

[9] = test system: S. aureus ST59; test: as above; assay type: cell-based; conditions: Staphylococcus aureus; S. aureus ST59; Cy5-DAA probe, 2 hours; read-out: MIC, FDAA
Experimental: as §3

[10] = test system: S. aureus ST59; test: Vitek 2 drug sensitivity test; assay type: cell-based, Staphylococcus aureus; as to Sensibility: key: S: Drug sensitive; R: Drug resistance
[11] = test system: S. aureus ST398; test: Vitek 2 drug sensitivity test; assay type: cell-based, Staphylococcus aureus; as to Sensibility: key: S: Drug sensitive; R: Drug resistance
[12] = test system: E. faecium Ef26; test: BMD susceptibility test; assay type: cell-based, Enterococcus faecium; conditions: unit assumed
[13] = test system: E. faecium Ef26; test: FaAST (FDAA metabolic labeling method); assay type: cell-based, Enterococcus faecium; conditions: unit assumed
Experimental: as §3
(§4) Bacteria with antibiotic resistance are shown in bold in the following table.

[14] = test system: E. faecalis ATCC29212; test: BMD susceptibility test; assay type: cell-based, Enterococcus faecalis; conditions: unit assumed
[15] = test system: E. faecalis ATCC29212; test: FaAST (FDAA metabolic labeling method); assay type: cell-based, Enterococcus faecalis; conditions: unit assumed
Experimental: as §3, §4

[16] = test system: E. faecalis ATCC29212; conditions: cited from earlier work
[17] = test system: alveolar lavage fluid sample 0130, A. baumannii; test: BMD susceptibility test of patient alveolar lavage fluid; assay type: cell-based, Acinetobacter baumannii; conditions: unit assumed
From the text: (§5) The results of antimicrobial susceptibility test of alveolar lavage fluid of seven patients using FDAA and BMD methods are shown in the following table. The drug-resistant bacteria are shown in bold.

[18] = test system: alveolar lavage fluid sample 0206, A. baumannii; test: as above; assay type: cell-based, Acinetobacter baumannii; conditions: unit assumed
From the text: as §5

[19] = test system: alveolar lavage fluid sample 0219, A. baumannii; test: as above; assay type: cell-based, Acinetobacter baumannii; conditions: unit assumed
From the text: as §5

[20] = test system: alveolar lavage fluid sample 0130, A. baumannii; test: FaAST (FDAA) susceptibility test of patient alveolar lavage fluid; assay type: cell-based, Acinetobacter baumannii; conditions: unit assumed
Experimental: (§6) With reference to the flow chart of the rapid detection method of antimicrobial susceptibility test based on FDAA metabolic markers shown in FIG. 3, FDAA is used for the detection of antimicrobial susceptibility test of alveolar lavage fluid. The specific experimental steps are as follows: • 1. Mix bronchoalveolar lavage fluid (BALF, 10 ml) of patients with hospital acquired pneumonia with cation regulated broth medium (CAMHB, 10 ml) of twice the concentration to prepare the bacterial fluid to be tested. • 2. Add 45 μl antibiotic solutions of different concentrations to the 96-well plate separately (see Table 1 for antibiotic concentration gradient settings). • 3. Add 50 μl of the bacterial solution prepared in step 1 to the 96-well plate and mix well. • 4. Add 5 μl of 10 mM Cy5-DAA probe (final concentration 0.15 mM, see FIG. 1 for its structure) into each well, mix well, and then cultivate in dark for 2 hours. • 5. Add 200 μl PBS solution for dilution, and then use flow cytometry to detect the fluorescence intensity of each sample.
as §5

[21] = test system: alveolar lavage fluid sample 0204, A. baumannii; test: as above; assay type: cell-based, Acinetobacter baumannii; conditions: unit assumed
Experimental: as §6, §5

[22] = test system: alveolar lavage fluid sample 0206, A. baumannii; test: as above; assay type: cell-based, Acinetobacter baumannii; conditions: unit assumed
Experimental: as §6, §5

[23] = test system: alveolar lavage fluid sample 0219, A. baumannii; test: as above; assay type: cell-based, Acinetobacter baumannii; conditions: unit assumed
Experimental: as §6, §5

[24] = test system: alveolar lavage fluid sample 0204, A. baumannii; test: BMD susceptibility test of patient alveolar lavage fluid; assay type: cell-based, Acinetobacter baumannii; conditions: unit assumed
[25] = test system: alveolar lavage fluid sample 0203, K. pneumoniae; test: as above; assay type: cell-based, Klebsiella pneumoniae; conditions: unit assumed
From the text: as §5

[26] = test system: alveolar lavage fluid sample 0226, K. pneumoniae; test: as above; assay type: cell-based, Klebsiella pneumoniae; conditions: unit assumed
From the text: as §5

[27] = test system: alveolar lavage fluid sample 0203, K. pneumoniae; test: FaAST (FDAA) susceptibility test of patient alveolar lavage fluid; assay type: cell-based, Klebsiella pneumoniae; conditions: unit assumed
Experimental: as §6, §5

[28] = test system: alveolar lavage fluid sample 0226, K. pneumoniae; test: as above; assay type: cell-based, Klebsiella pneumoniae; conditions: unit assumed
Experimental: as §6, §5

## CO/N=C(\C(=O)N[C@@H]1C(=O)N2C(C(=O)O)=C(COC(N)=O)CS[C@H]12)c1ccco1 [Cefuroxime]
[1]
  BMD (MIC): 4 µg/mL
[2]
  FaAST (MIC): 8 µg/mL
[3]
  FaAST (MIC): 8 µg/mL
[4]
  BMD (MIC): 4 µg/mL
[5]
  BMD (MIC): 2 µg/mL
[6]
  FaAST (MIC): 4 µg/mL
[7]
  CLSI QC range: 2-8

## CC[C@H]1OC(=O)[C@H](C)[C@@H](O[C@H]2C[C@@](C)(OC)[C@@H](O)[C@H](C)O2)[C@H](C)[C@@H](O[C@@H]2O[C@H](C)C[C@H](N(C)C)[C@H]2O)[C@](C)(O)C[C@@H](C)C(=O)[C@H](C)[C@@H](O)[C@]1(C)O [Erythromycin, erythromycin]
[8]
  MIC: 0.5 µg/mL (≈ 0.681 µM)
[9]
  MIC: 8 µg/mL (≈ 10.9 µM)
[10]
  Sensibility: R
[10]; Staphylococcus aureus
  MIC: ≥ 8 µg/mL
[11]
  Sensibility: S
[11]; Staphylococcus aureus
  MIC: ≤ 0.25 µg/mL
[12]
  BMD (MIC): ≤ 0.25 µg/mL
[13]
  FaAST (MIC): ≤ 0.25 µg/mL
[14]
  BMD (MIC): 2 µg/mL
[15]
  FaAST (MIC): 2 µg/mL
[16]
  CLSI QC range: 1-4

## C[C@@H](O)[C@H]1C(=O)N2C(C(=O)O)=C(S[C@@H]3CN[C@H](C(=O)N(C)C)C3)[C@H](C)[C@H]12 [Meropenem]
[17]
  BMD (MIC): 64 µg/mL
[18]
  BMD (MIC): 32 µg/mL
[19]
  BMD (MIC): 32 µg/mL
[20]
  FaAST (MIC): 32 µg/mL
[21]
  FaAST (MIC): 4 µg/mL
[22]
  FaAST (MIC): 32 µg/mL
[23]
  FaAST (MIC): 64 µg/mL
[24]
  BMD (MIC): 0.5 µg/mL
[25]
  BMD (MIC): 0.25 µg/mL
[26]
  BMD (MIC): 0.25 µg/mL
[27]
  FaAST (MIC): 0.25 µg/mL
[28]
  FaAST (MIC): 0.25 µg/mL
